# Where a name gives a salt, the structure may show the parent alone.
# Assay: Thermal stability assessment, oven then HPLC for degradants
# Assay type: physicochemical
# Conditions: oven at 210° C. for 10 mins, compared with unheated sample
# Method: The antimicrobial agents were placed into an oven set at 210° C. for 10 mins (to mimic condition in which the antimicrobial agent would be exposed to heat during the compounding and extrusion processes). Another set of the same antimicrobial agents was not exposed to any heat. The unheated and heated samples were then examined through HPLC method for presence of degradants (extra peaks). Results of CHA and CHD are in FIGS. 8, 9, 10, and 11. […] Similar to CHD, ALX-D was also found stable at 210° C. for 10 mins and was found suitable for including in the device through compounding process.
row,Compound,"thermal stability, presence of degradants (extra peaks) by HPLC"
1,"CCCCC(CC)CNC(=N)NC(=N)NCCCCCCNC(=N)NC(=N)NCC(CC)CCCC (stereo not drawn) [ALX-D, Alexidine Dihydrochloride]",stable
2,"CC(=O)O.CC(=O)O.NC(=N\CCCCCC/N=C(N)/N=C(\N)Nc1ccc(Cl)cc1)/N=C(\N)Nc1ccc(Cl)cc1 [CHA, Chlorhexidine Diacetate]",several extra peaks from degradants
3,"[H]/N=C(\N/C(=N/[H])NCCCCCCNC(=N)NC(=N)Nc1ccc(Cl)cc1)Nc1ccc(Cl)cc1 [CHD, Chlorhexidine Dihydrochloride]",absence of any extra peaks
